Assay results published in US20240239811A1, “5-(5-(PIPERIDIN-4-YL)THIENO[3,2-C]PYRAZOL-2-YL]INDAZOLE DERIVATIVES AND RELATED COMPOUNDS AS MODULATORS FOR SPLICING NUCLEIC ACIDS AND FOR THE T” (REMIX THERAPEUTICS INC., priority 2020, published 2024).
Counter-ions that a name gives are not always drawn.

Key:
Type in all cases: cell-based
SMN2 CJ mRNA = assay: Gene panel canonical junction qPCR assay, SMN2; conditions: Table 6, decrease in CJ mRNA, read-out: SMN2 IC50 (decrease in CJ mRNA levels)
Procedure: (§1) Compounds described herein were used to modulate RNA transcript abundance in cells. The expression of a target mRNA was measured by detecting the formation of an exon-exon junction in the canonical transcript (CJ). A compound mediated exon-inclusion event was detected by observing an increase in formation of a new junction with an alternative exon (AJ). Real-time qPCR assays were used to detect these splicing switches and interrogate the potency of various compounds towards different target genes. A high-throughput real time quantitative PCR (RT-qPCR) assay was developed to measure these two isoforms of the mRNA (CJ and AJ) for an exemplary gene, HTT, together with a control housekeeping gene, GAPDH or GUSB or PPIA, used for normalization. Briefly, the A673 or K562 cell line was treated with various compounds described herein (e.g., compounds of Formula (I)). After treatment, the levels of the HTT mRNA targets were determined from each sample of cell lysate by cDNA synthesis followed by qPCR.
(§2) The A673 cell line was cultured in DMEM with 10% FBS. Cells were diluted with full growth media and plated in a 96-well plate (15,000 cells in 100ul media per well). The plate was incubated at 37° C. with 5% CO2 for 24 hours to allow cells to adhere. An 11-point 3-fold serial dilution of the compounds was made in DMSO then diluted in media in an intermediate plate. Compounds were transferred from the intermediate plate to the cell plate with the top dose at a final concentration of 10 uM in the well. Final DMSO concentration was kept at or below 0.25%. The cell plate was returned to the incubator at 37° C. with 5% CO2 for an additional 24 hours.
(§3) The K562 cell line was cultured in IMDM with 10% FBS. For K562, cells were diluted with full growth media and plated in either a 96-well plate (50,000 cells in 50 uL media per well) or a 384-well plate (8,000-40,000 cells in 45 uL media per well). An 11-point 3-fold serial dilution of the compounds were made in DMSO then diluted in media in an intermediate plate. Compound was transferred from the intermediate plate to the cell plate with the top dose at a final concentration of 10 uM in the well. Final DMSO concentration was kept at or below 0.25%. Final volume was 100 uL for 96-well plate and 50 uL for 384-well plate. The cell plate was then placed in an incubator at 37° C. with 5% CO2 for 24 hours.
(§4) The data analysis was performed by first determining the ΔCt vs the housekeeper gene. This ΔCt was then normalized against the DMSO control (ΔΔCt) and converted to RQ (relative quantification) using the 2^(−ΔΔCt) equation. The RQ were then converted to a percentage response by arbitrarily setting an assay window of 3.5 ΔCt for HTT-CJ and an assay window of 9 ΔCt for HTT-AJ. […] The percentage response was then fitted to the 4 parametric logistic equation to evaluate the concentration dependence of compound treatment. The increase in AJ mRNA is reported as AC50 (compound concentration having 50% response in AJ increase) while the decrease in CJ mRNA levels is reported as IC50 (compound concentration having 50% response in CJ decrease).
(§5) Additional studies were carried out for a larger panel of genes using the protocol provided above. The junction between flanking upstream and downstream exons was used to design canonical junction qPCR assays. At least one of the forward primer, reverse primer or the CY5-labeled 5′ nuclease probe (with 3′ quencher such as ZEN/Iowa Black FQ) was designed to overlap with the exon junction to capture the CJ mRNA transcript. BLAST was used to confirm the specificity of the probeset and parameters such as melting temperature, GC content, amplicon size, and primer dimer formation are considered during their design. Data for the decrease in CJ mRNA levels for three exemplary genes (HTT, SMN2, and Target C) analyzed in this panel are reported as IC50 (compound concentration having […] in CJ decrease).

Target C CJ mRNA = assay: Gene panel canonical junction qPCR assay, Target C; conditions: Table 6, decrease in CJ mRNA, read-out: Target C IC50 (decrease in CJ mRNA levels)
Procedure: as §1, §2, §3, §4, §5

HTT CJ mRNA = assay: Gene panel canonical junction qPCR assay, HTT; conditions: Table 6, decrease in CJ mRNA, read-out: HTT IC50 (decrease in CJ mRNA levels)
Procedure: as §1, §2, §3, §4, §5

HTT mRNA = assay: Splicing assay (RT-qPCR) monitoring HTT splice variants, canonical (CJ) and alternative (AJ) junction; conditions: 50% response, A673 or K562 cell line, 24 hours; for IC50: decrease in CJ mRNA; for AC50: increase in AJ mRNA
Procedure: as §1
• Cells-to-CT 1-step kit: ThermoFisher A25602, Cells-to-CT lysis reagent: ThermoFisher 4391851C, TaqMan™ Fast Virus 1-Step Master Mix: ThermoFisher 4444436 • GAPDH: VIC-PL, ThermoFisher 4326317E (Assay: Hs99999905_ml)—used for K562/suspension cell lines • GUSB: VIC-PL, ThermoFisher 4326320E (Assay: Hs99999908_ml)—used for K562/suspension cell lines • PPIA: VIC-PL, ThermoFisher 4326316E (Assay: Hs99999904_ml)—used for A673/adherent cell lines
as §2, §3
The cells were then gently washed with 50 uL-100 uL cold PBS before proceeding to addition of lysis buffer. 30 uL-50 uL of room temperature lysis buffer with DNAse I (and optionally RNAsin) was added to each well. Cells were shaken/mixed thoroughly at room temperature for 5-10 minutes for lysis to take place and then 3 uL-5 uL of room temperature stop solution was added and wells were shaken/mixed again. After 2-5 minutes, the cell lysate plate was transferred to ice for RT-qPCR reaction setup. The lysates could also be frozen at −80° C. for later use.
In some cases, a direct lysis buffer was used. An appropriate volume of 3X lysis buffer (10 mM Tris, 150 mM NaCl, 1.5%-2.5% Igepal and 0.1-1 U/uL RNAsin, pH 7.4) was directly added to either K562 or A673 cells in media and mixed by pipetting 3 times. The plates were then incubated at room temperature with shaking/rocking for 20-50 minutes to allow for lysis to take place. After this time, the cell lysate plate was transferred to ice to set up for the RT-qPCR reactions. The lysates could also be frozen at −80° C. for later use. […]

IC50 (SMN2 CJ mRNA)	IC50 (Target C CJ mRNA)	IC50 (HTT CJ mRNA)	IC50 (HTT mRNA)	SMILES	AC50 (HTT mRNA)
0.1 to 1 µM	> 10 µM	1 to 10 µM	1 to 10 µM	Cc1cn2nc(-c3cc4cn([C@H]5CCNC[C@@H]5F)nc4s3)cc(C)c2n1 (mixture of isomers) [Compound 212, 5-(2,8-dimethylimidazo[1,2-b]pyridazin-6-yl)-2-((1:1 mixture of 3S,4S and 3R,4R)-3-fluoropiperidin-4-yl)-2H-thieno[2,3-c]pyrazole]	1 to 10 µM
< 0.1 µM	0.1 to 1 µM	< 0.1 µM	< 0.1 µM	Cn1cc2cc(-c3cc4cn([C@H]5CCNC[C@H]5F)nc4s3)cc(F)c2n1 (stereo in doubt) [Compound 182]	0.1 to 1 µM
–	> 10 µM	–	–	Cn1cc2cc(-n3cc4sc(C5CCNCC5)cc4n3)ccc2n1 [Compound 100, 2-methyl-5-[5-(piperidin-4-yl)thieno[3,2-c]pyrazol-2-yl]indazole]	1 to 10 µM
< 0.1 µM	< 0.1 µM	< 0.1 µM	< 0.1 µM	Cc1cn2nc(-n3cc4sc(C5CCNCC5)cc4n3)cc(C)c2n1 [Compound 101, 4-(2-[2,8-dimethylimidazo[1,2-b]pyridazin-6-yl]thieno[3,2-c]pyrazol-5-yl)piperidine]	0.1 to 1 µM
< 0.1 µM	0.1 to 1 µM	0.1 to 1 µM	0.1 to 1 µM	Cn1cc2cc(-c3cn4nc(C5CCNCC5)nc4s3)cc(F)c2n1 [Compound 102, 7-fluoro-2-methyl-5-[2-(piperidin-4-yl)-[1,2,4]triazolo[3,2-b][1,3]thiazol-5-yl]indazole]	0.1 to 1 µM
> 10 µM	> 10 µM	> 10 µM	> 10 µM	Cn1cc2cc(-c3nc4sc(C5CCNCC5)cn4n3)cc(F)c2n1 [Compound 103, 7-fluoro-2-methyl-5-[5-(piperidin-4-yl)-[1,2,4]triazolo[3,2-b][1,3]thiazol-2-yl]indazole]	> 10 µM
< 0.1 µM	0.1 to 1 µM	< 0.1 µM	< 0.1 µM	Cn1cc2cc(-n3cc4cc(C5CCNCC5)sc4n3)cc(F)c2n1 [Compound 104, 7-fluoro-2-methyl-5-[5-(piperidin-4-yl)thieno[2,3-c]pyrazol-2-yl] indazole]	0.1 to 1 µM
0.1 to 1 µM	1 to 10 µM	0.1 to 1 µM	0.1 to 1 µM	Cn1cc2cc(-n3cc4sc(C5CCNCC5)cc4n3)cc(F)c2n1 [Compound 105, 7-fluoro-2-methyl-5-[5-(piperidin-4-yl)thieno[3,2-c]pyrazol-2-yl]indazole]	0.1 to 1 µM
< 0.1 µM	< 0.1 µM	< 0.1 µM	< 0.1 µM	Cn1cc2cc(-c3nc4sc(C5CCNCC5)cc4s3)cc(F)c2n1 [Compound 106, 7-fluoro-2-methyl-5-[5-(piperidin-4-yl)thieno[2,3-d][1,3]thiazol-2-yl]indazole]	< 0.1 µM
< 0.1 µM	–	0.1 to 1 µM	0.1 to 1 µM	Cc1cn2nc(-n3cc4cc(C5CCNCC5)sc4n3)cc(C)c2n1 [Compound 110, 4-(2-[2,8-dimethylimidazo[1,2-b]pyridazin-6-yl]thieno[2,3-c]pyrazol-5-yl) piperidine]	0.1 to 1 µM
< 0.1 µM	< 0.1 µM	< 0.1 µM	< 0.1 µM	Cc1cn2nc(-c3nc4sc(C5CCNCC5)cc4s3)cc(C)c2n1 [Compound 112, 4-(2-[2,8-dimethylimidazo[1,2-b]pyridazin-6-yl]thieno[2,3-d][1,3]thiazol-5-yl)piperidine]	< 0.1 µM
< 0.1 µM	–	0.1 to 1 µM	0.1 to 1 µM	Cn1cc2cc(-c3cc4nn(C5CCNCC5)cc4s3)cc(F)c2n1 [Compound 121, 7-fluoro-2-methyl-5-[2-(piperidin-4-yl)thieno[3,2-c]pyrazol-5-yl]indazole]	0.1 to 1 µM
< 0.1 µM	< 0.1 µM	< 0.1 µM	< 0.1 µM	Cn1cc2cc(-c3cc4cn(C5CCNCC5)nc4s3)cc(F)c2n1 [Compound 122, 7-fluoro-2-methyl-5-[2-(piperidin-4-yl)thieno[2,3-c]pyrazol-5-yl]indazole]	0.1 to 1 µM
< 0.1 µM	0.1 to 1 µM	0.1 to 1 µM	0.1 to 1 µM	Cn1cc2cc(-c3cc4sc(C5CCNCC5)nc4s3)cc(F)c2n1 [Compound 124, 7-fluoro-2-methyl-5-[2-(piperidin-4-yl)thieno[2,3-d][1,3]thiazol-5-yl]indazole]	< 0.1 µM
0.1 to 1 µM	1 to 10 µM	0.1 to 1 µM	0.1 to 1 µM	Cc1cn2nc(-c3cc4sc(C5CCNCC5)nc4s3)cc(C)c2n1 [Compound 125, 4-(5-[2,8-dimethylimidazo[1,2-b]pyridazin-6-yl]thieno [2,3-d][1,3]thiazol-2-yl) piperidine]	0.1 to 1 µM
0.1 to 1 µM	1 to 10 µM	0.1 to 1 µM	0.1 to 1 µM	Cc1nc2c(F)cc(-c3nc4sc(C5CCNCC5)cc4s3)cc2s1 [Compound 126, 4-fluoro-2-methyl-6-[5-(piperidin-4-yl)thieno[2,3-d][1,3]thiazol-2-yl]-1,3-benzothiazole hydrochloride]	0.1 to 1 µM
1 to 10 µM	1 to 10 µM	1 to 10 µM	1 to 10 µM	Cn1cc2ccc(-c3nc4sc(C5CCNCC5)cc4s3)cc2n1 [Compound 127, 2-methyl-6-[5-(piperidin-4-yl)thieno [2,3-d][1,3]thiazol-2-yl]indazole hydrochloride]	1 to 10 µM
–	–	0.1 to 1 µM	0.1 to 1 µM	Cn1cc2cc(-c3cc4cn([C@H]5CCNC[C@@H]5F)nc4s3)cc(F)c2n1 [Compound 190]	0.1 to 1 µM
